Data from patent US20160046904A1, “Method For Culturing Hepatoblast-Like Cells And Culture Product Thereof” (NATIONAL INSTITUTES OF BIOMEDICAL INNOVATION, HEALTH AND …, priority 2013, published 2016).

What was measured:
[1] = system: HBCs from human ES cells (H9); test: Marker positive rates of HBCs passaged 8 times on LN111- or LN111E8-coated culture dish (flow cytometry); type: cell-based
Method: By the same procedure as in Example 9, HBCs were seeded to each well of various types of laminin coated culture dishes at 7.5×10^4 cells/cm^2 by using a LN111- or LN111E8-coated culture dish, and the medium was exchanged after 15 minutes (the number of passages of 0, day 9). After that, the cells were cultured for from 6 days to 7 days with the medium being exchanged every day, and a cell suspension was prepared so that the number of cells was 7.5×10^4 cells/cm^2. Then, the cells were passaged on the LN111-coated culture dish or the LN111E8-coated culture dish. At the time when such passage operations were repeated 8 times (P8), the positive rate of AFP (%) was confirmed by flow cytometry analysis. […] In addition, also with regard to markers other than AFP (CD133, EpCAM, ALB, CK7, and CK19), their positive rates were confirmed by flow cytometry analysis at the time when the passage culture was repeated up to 8 times (P8).

[2] = system: HBCs derived from ES cells (H9); test: Differentiation induction of LN111-maintained HBCs to bile duct epithelial cells (EGF, ILGF2, collagen gel); type: cell-based, human; details: HBC P10 maintained on LN111 vs HBC P0; 14 days differentiation
Method: Specifically, in Example 6, HBCs (H9) without passage (HBC P0), HBCs passaged 10 times (HBC P10), and HBCs derived from a single cell (clone) were embedded in collagen gel by using a medium containing EGF (50 ng/ml) and ILGF2 (20 ng/ml), and were cultured for 14 days. Then, the expression of each of marker genes before and after the differentiation induction treatment to a bile duct by EGF and ILGF2 was confirmed. The expression was confirmed by a RT-PCR technique (FIG. 17). Commercially available primer sets and reagents were used for RT-PCR measurement. SOX9 and Type IV collagen are markers of bile duct epithelial cells, and ALB and αAT are markers of mature hepatocytes.
Each of relative expression levels of marker genes of bile duct epithelial cells and mature hepatocytes was confirmed by defining the expression level in cells of […] before being subjected to the differentiation induction as 1. The expressions of markers of bile duct epithelial cells were increased by the differentiation induction treatment. In addition, the expression levels of bile duct marker genes (SOX9 and Type IV collagen) by bile duct epithelial cells which were induced to differentiate from HBC P10 were higher than those which were induced to differentiate from HBC P0 (FIG. 17).

[3] = system: HBCs derived from ES cells (H9); test: Differentiation induction of LN111-maintained HBCs to hepatocytes (HGF, OsM, DEX on Matrigel); type: cell-based, human; details: HBC P10 maintained on LN111 vs HBC P0; 14 days differentiation
Method: In view of the foregoing, in Example 5, HBCs (H9) with the number of passages of 0 (HBC P0), HBCs (H9) with the number of passages of 10 (HBC P10), and HBCs derived from a single cell (HBC clone) were cultured in a medium containing HGF, OsM (20 ng/ml), and DEX (10^−6 M) on Matrigel for 14 days, and the expression of each of marker genes before and after the differentiation induction treatment into liver by HGF, OsM, and DEX was confirmed. Clone cells were obtained by seeding cells on a culture dish at 200 cells/cm^2. The expression of each of gene markers was confirmed by real-time RT-PCR. Commercially available primer sets and reagents were used for real-time RT-PCR measurement. […]
Each of relative expression levels of marker genes of mature hepatocytes was confirmed by defining the expression level by human frozen hepatocytes cultured for 48 hours after being seeded on a culture dish as 1. […] It was confirmed that the differentiation rate into mature hepatocytes of hepatocytes obtained by differentiation induction on the HBCs (H9) with the number of passages of 10 (HBC P10) was higher than that of the hepatocytes obtained by differentiation induction on the HBCs (HBC P0), also from the ASGR1 positive cell rates analyzed by flow cytometry (FIG. 16A) and the amounts of ALB secretion and Urea secretion (FIGS. 16B and 16C).

[4] = system: HBCs derived from ES cells (H9) and HBCs derived from iPS cells (Dotcom); test: Repeated passage (15 times) of HBCs on LN111-coated culture dish: cell number and AFP flow cytometry; type: cell-based, human
Method: In Example 3, the proliferative capacities of HBCs derived from ES cells (H9) obtained in Reference Example 2 and HBCs derived from iPS cells (Dotcom) generated by the same procedure were confirmed. The cells derived from ES cells or those derived from iPS cells on day 9 obtained by treating the cells by the same procedure as in Reference Example 2 were seeded in each well of the LN111-coated culture dish at 7.5×10^4 cells/cm^2, and the medium was exchanged after 15 minutes (the number of times of passage was 0, on day 9). After that, the cells were cultured for from 6 days to 7 days with the medium being exchanged every day, a cell suspension was prepared so that the number of cells was 7.5×10^4 cells/cm^2, and the cells were passaged on the LN111-coated culture dish. Such passage operations were performed 15 times.

[5] = system: HBCs derived from ES cells; test: AFP expression of cells cultured on various laminin-coated culture dishes; type: cell-based, human; details: cells cultured on laminin-coated dish, compared with cells immediately after passage (P0) (FIG. 9)
Method: (§1) In Example 1 and Comparative Example 1, with regard to HBCs derived from ES cells obtained in Reference Example 2, properties of cells treated with laminins were confirmed. The coating treatment was performed on cell culture dishes by using various types of human laminins with different isoforms (laminin 111 (LN111), laminin 211 (LN211), laminin 411 ([…]), and laminin 511 (LN511)). The coating treatment was conducted by preparing 20 μg/ml of each Laminin Coating Solution, adding the Laminin Coating Solution to each well at 5 μg/cm^2, and leaving the cell culture dishes at room temperature for 1 hour or more.
(§2) Next, the cells on day 9 after treated by the same procedure as in Reference Example 2 were seeded on each well of various types of laminin coated culture dishes at 7.5×10^4 cells/cm^2, the medium was exchanged after 15 minutes, and cells attached to the dishes were used as HBCs and cells not attached to the dishes were used as NHBCs (see FIG. 5). With regard to cells before passage (the cell population which contained both HBCs and NHBCs: before), HBCs, and NHBCs, the expressions of integrin α6 (ITGA6) and integrin β1 (ITGB1) were confirmed. As a result, almost all cells of HBCs were confirmed to be co-positive (FIG. 7). The HBCs attached to the dishes were each further cultured for 7 days. […]

[6] = system: HBCs derived from ES cells; test: Proliferation of HBCs on various laminin-coated culture dishes; type: cell-based, human; details: attached HBCs cultured for 7 days; compared among LN111, LN211, LN411, LN511 coated dishes (FIG. 8)
Method: as §1, §2

[7] = system: HBCs derived from ES cells (H9); test: ALB/CK7 colony count of HBCs cultured on laminin-coated culture dishes (immunostaining); type: cell-based, human; details: HBCs seeded at 200 cells/cm^2 on laminin-coated dish, medium 3, 5 days after seeding
Method: as §1
In Example 2 and Comparative Example 2, HBCs derived from ES cells (H9) obtained in Reference Example 2 were seeded in each well of various types of laminin-coated culture dishes at 200 cells/cm^2 in a similar manner to Example 1 and Comparative Example 1, the HBCs were cultured by using the medium 3, and the expressions of ALB and CK7 by cultured cells were confirmed. The HBCs were fixed by using a 4% paraformaldehyde solution 5 days after seeding the HBCs, immunostaining was performed, and thereafter, the numbers of colonies which were ALB positive (+)/CK7 positive (+), ALB positive (+)/CK7 negative (−) and ALB negative (−)/CK7 […] were counted. When the cells were cultured in the LN111-coated culture dish, the highest number of the ALB positive (+)/CK7 positive (+) colonies, which were colonies of hepatoblast-like cells, was able to be confirmed.

Substance	positive rate of AFP after passage ([1]; passaged 8 times (P8) (FIG. 24))	positive rates of markers other than AFP (CD133, EpCAM, ALB, CK7, CK19) ([1]; passaged 8 times (P8) (FIG. 25))	differentiation ability to bile duct epithelial cells [2]	differentiation efficiency and differentiation ability to hepatocytes [3]	AFP positive cells ([4]; HBC P1, P10, P15, flow cytometry (FIG. 11))	proliferation of cultured cells over passages ([4]; passage every 6 to 7 days, 15 passages (FIG. 10))	expression of AFP [5]	proliferation rate of HBCs [6]	number of ALB+/CK7+ colonies [7]	number of ALB+/CK7− colonies [7]	number of ALB−/CK7+ colonies [7]
LN111: human recombinant laminin 111 (α1β1γ1), used to coat cell culture dishes	expressions of AFP were maintained	expressions of all markers were maintained	improved	improved	high expression rates of AFP regardless of the number of passages	continued to proliferate even after passaged 15 times	expressed AFP in a similar manner to a group of cells immediately after passage (P0)	highest	82	2	5
LN211: human recombinant laminin 211, comparative dish coating									25	3	12
LN411: human recombinant laminin 411, comparative dish coating									12	6	31
LN511: human recombinant laminin 511, comparative dish coating									14	2	36
